Experimental data: ChEMBL document CHEMBL4715701, “A new chromanone derivative isolated from Hypericum lissophloeus (Hypericaceae) potentiates GABAA receptor currents in a subunit specific fashion” (Bioorg Med Chem, 2016)
Active and inactive are the calls of the source. The rule behind the calls is not given here.

Legend:
[1] = Ex vivo inhibition of synaptosomal serotonin re-uptake 10 to 100 uM relative to control; type: functional, subcellular; settings: Synaptosome; dose 10-100 µM
[2] = target: T1, GABA-A receptor; alpha-1/beta-2/gamma-2 (Homo sapiens) (UniProt P14867+P47870+P18507); assay: Allosteric modulation of GABAA alpha1beta2gamma2 (unknown origin) expressed in Xenopus oocytes assessed as potentiation of GABA-induced current response at 0.1 uM at -80 mV holding potential incubated for 3 mins by two electrode voltage clamp method relative to control; type: cell-based; settings: Oocyte, filed as positive allosteric modulator
[3] = target: T1, GABA-A receptor; alpha-1/beta-2/gamma-2 (Homo sapiens); assay: Allosteric modulation of GABAA alpha1beta2gamma2 (unknown origin) expressed in Xenopus oocytes assessed as potentiation of GABA-induced current response at -80 mV holding potential incubated for 3 mins by two electrode voltage clamp method relative to control; type: cell-based; settings: Oocyte, filed as positive allosteric modulator
[4] = target: T1, GABA-A receptor; alpha-1/beta-2/gamma-2 (Homo sapiens); assay: Allosteric modulation of GABAA alpha1beta2gamma2 (unknown origin) expressed in Xenopus oocytes assessed as potentiation of GABA-induced current response at 3 uM at -80 mV holding potential incubated for 3 mins by two electrode voltage clamp method relative to control; type: cell-based; settings: Oocyte, filed as positive allosteric modulator
Oocyte [5] = assay: Allosteric modulation of GABAA alpha1S269Ibeta2gamma2 mutant (unknown origin) expressed in Xenopus oocytes assessed as potentiation of GABA-induced current response at 3 uM at -80 mV holding potential incubated for 3 mins by two electrode voltage clamp method; type: cell-based; settings: Homo sapiens
Oocyte [6] = assay: Allosteric modulation of GABAA alpha2beta2gamma2 (unknown origin) expressed in Xenopus oocytes assessed as potentiation of GABA-induced current response at 3 uM at -80 mV holding potential incubated for 3 mins by two electrode voltage clamp method; type: cell-based; settings: Homo sapiens, filed as positive allosteric modulator
Homo sapiens = organism: Homo sapiens; assay: Allosteric modulation of GABA(A)/BzR (unknown origin) assessed as potentiation of GABA-induced current response at 3 uM relative to control; settings: filed as positive allosteric modulator
[7] = target: T1, GABA-A receptor; alpha-1/beta-2/gamma-2 (Homo sapiens); assay: Allosteric modulation of GABAA alpha1beta2gamma2 (unknown origin) expressed in Xenopus oocytes at 3 uM at -80 mV holding potential incubated for 3 mins by two electrode voltage clamp method relative to control; type: cell-based; settings: Oocyte
[8] = target: GABA-A receptor; alpha-1/beta-3/gamma-2 (Homo sapiens) (UniProt P14867+P18507+P28472); assay: Allosteric modulation of GABAA alpha1beta3gamma2 (unknown origin) expressed in Xenopus oocytes assessed as potentiation of GABA-induced current response at 3 uM at -80 mV holding potential incubated for 3 mins by two electrode voltage clamp method; type: cell-based; settings: Oocyte, filed as positive allosteric modulator
[9] = target: Gamma-aminobutyric acid receptor subunit alpha-1/beta-2/delta (Homo sapiens) (UniProt P14867+P47870+O14764); assay: Allosteric modulation of GABAA alpha1beta2delta (unknown origin) expressed in Xenopus oocytes assessed as potentiation of GABA-induced current response at 3 uM at -80 mV holding potential incubated for 3 mins by two electrode voltage clamp method; type: cell-based; settings: Oocyte, filed as positive allosteric modulator
[10] = target: Gamma-aminobutyric acid receptor subunit alpha-5/beta-2/gamma-2 (Homo sapiens) (UniProt P47870+P18507+P31644); assay: Allosteric modulation of GABAA alpha5beta2gamma2 (unknown origin) expressed in Xenopus oocytes assessed as potentiation of GABA-induced current response at 3 uM at -80 mV holding potential incubated for 3 mins by two electrode voltage clamp method; type: cell-based; settings: Oocyte, filed as positive allosteric modulator
Oocyte [11] = assay: Allosteric modulation of GABAA alpha3beta2gamma2 (unknown origin) expressed in Xenopus oocytes assessed as potentiation of GABA-induced current response at 3 uM at -80 mV holding potential incubated for 3 mins by two electrode voltage clamp method; type: cell-based; settings: Homo sapiens, filed as positive allosteric modulator
Oocyte [12] = assay: Allosteric modulation of GABAA alpha1beta2gamma2S280I mutant (unknown origin) expressed in Xenopus oocytes assessed as potentiation of GABA-induced current response at 3 uM at -80 mV holding potential incubated for 3 mins by two electrode voltage clamp method; type: cell-based; settings: Homo sapiens
[13] = Ex vivo inhibition of synaptosomal serotonin re-uptake 100 uM; type: functional, subcellular; settings: Synaptosome
[14] = target: T2, GABA-A receptor; alpha-1/beta-2/gamma-2 (Homo sapiens, UniProt P14867+P18507+P47870); assay: Allosteric modulation of GABAA alpha1beta2gamma2 (unknown origin) expressed in Xenopus oocytes assessed as potentiation of GABA-induced current response at -80 mV holding potential incubated for 3 mins by two electrode voltage clamp method; type: cell-based, Oocyte
T2 sequence (P14867 whole entry): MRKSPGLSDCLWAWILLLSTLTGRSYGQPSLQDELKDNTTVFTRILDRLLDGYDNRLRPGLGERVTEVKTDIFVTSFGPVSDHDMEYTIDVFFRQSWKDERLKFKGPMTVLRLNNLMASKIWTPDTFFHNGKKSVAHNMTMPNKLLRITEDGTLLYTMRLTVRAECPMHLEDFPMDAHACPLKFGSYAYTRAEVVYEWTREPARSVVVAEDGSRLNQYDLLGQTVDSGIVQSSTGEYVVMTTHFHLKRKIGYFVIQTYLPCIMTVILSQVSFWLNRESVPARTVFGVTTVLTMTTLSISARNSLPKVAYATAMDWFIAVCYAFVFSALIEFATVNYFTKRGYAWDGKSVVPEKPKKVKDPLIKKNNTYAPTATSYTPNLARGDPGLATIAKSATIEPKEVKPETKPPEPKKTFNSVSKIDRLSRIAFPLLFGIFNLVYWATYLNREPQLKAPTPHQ
T2 sequence (P47870 whole entry): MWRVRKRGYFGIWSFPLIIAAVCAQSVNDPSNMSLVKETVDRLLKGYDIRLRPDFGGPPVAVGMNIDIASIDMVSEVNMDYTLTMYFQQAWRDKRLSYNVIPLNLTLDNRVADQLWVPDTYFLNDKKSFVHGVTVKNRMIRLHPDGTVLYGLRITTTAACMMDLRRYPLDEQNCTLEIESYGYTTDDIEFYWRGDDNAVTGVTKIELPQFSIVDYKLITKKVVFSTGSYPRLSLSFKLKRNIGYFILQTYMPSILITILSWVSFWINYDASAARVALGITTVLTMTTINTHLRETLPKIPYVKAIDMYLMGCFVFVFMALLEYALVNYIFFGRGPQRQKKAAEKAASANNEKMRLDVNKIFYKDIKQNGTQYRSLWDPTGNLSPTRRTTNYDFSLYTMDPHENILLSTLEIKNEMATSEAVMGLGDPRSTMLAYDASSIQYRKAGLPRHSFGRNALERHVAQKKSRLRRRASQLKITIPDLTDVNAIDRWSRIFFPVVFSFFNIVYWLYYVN
T2 sequence (P18507 whole entry): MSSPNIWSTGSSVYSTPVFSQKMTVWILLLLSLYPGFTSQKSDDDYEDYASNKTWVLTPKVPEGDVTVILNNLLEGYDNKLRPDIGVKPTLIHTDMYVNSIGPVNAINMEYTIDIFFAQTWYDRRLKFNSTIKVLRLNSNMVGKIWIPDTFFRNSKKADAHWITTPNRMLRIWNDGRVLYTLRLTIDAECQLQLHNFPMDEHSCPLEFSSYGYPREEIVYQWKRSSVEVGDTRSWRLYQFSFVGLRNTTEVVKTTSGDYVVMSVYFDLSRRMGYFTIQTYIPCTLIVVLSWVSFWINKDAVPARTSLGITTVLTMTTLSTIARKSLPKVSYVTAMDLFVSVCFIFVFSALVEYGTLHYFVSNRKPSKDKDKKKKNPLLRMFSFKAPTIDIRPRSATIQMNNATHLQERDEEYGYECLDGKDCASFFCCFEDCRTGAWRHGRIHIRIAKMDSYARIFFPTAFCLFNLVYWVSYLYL

[15] = target: T1, GABA-A receptor; alpha-1/beta-2/gamma-2 (Homo sapiens); assay: Allosteric modulation of GABAA alpha1beta2gamma2 (unknown origin) expressed in Xenopus oocytes assessed as potentiation of GABA-induced current response at 30 uM at -80 mV holding potential incubated for 3 mins by two electrode voltage clamp method; type: cell-based; settings: Oocyte, filed as positive allosteric modulator
[16] = target: T1, GABA-A receptor; alpha-1/beta-2/gamma-2 (Homo sapiens); assay: Allosteric modulation of GABAA alpha1beta2gamma2 (unknown origin) expressed in Xenopus oocytes assessed as potentiation of GABA-induced current response at 10 uM at -80 mV holding potential incubated for 3 mins by two electrode voltage clamp method; type: cell-based; settings: Oocyte, filed as positive allosteric modulator
Oocyte [17] = assay: Allosteric modulation of GABAA alpha1beta2N265Igamma2 mutant (unknown origin) expressed in Xenopus oocytes assessed as potentiation of GABA-induced current response at 3 uM at -80 mV holding potential incubated for 3 mins by two electrode voltage clamp method; type: cell-based; settings: Homo sapiens
[18] = target: GABA A receptor alpha-1/beta-1/gamma-2 (Homo sapiens) (UniProt P14867+P18507+P18505); assay: Allosteric modulation of GABAA alpha1beta1gamma2 (unknown origin) expressed in Xenopus oocytes assessed as potentiation of GABA-induced current response at 3 uM at -80 mV holding potential incubated for 3 mins by two electrode voltage clamp method; type: cell-based; settings: Oocyte, filed as positive allosteric modulator
Oocyte [19] = assay: Allosteric modulation of GABAA alpha6beta2gamma2 (unknown origin) expressed in Xenopus oocytes assessed as potentiation of GABA-induced current response at 3 uM at -80 mV holding potential incubated for 3 mins by two electrode voltage clamp method; type: cell-based; settings: Homo sapiens, filed as positive allosteric modulator
[20] = target: T1, GABA-A receptor; alpha-1/beta-2/gamma-2 (Homo sapiens); assay: Allosteric modulation of GABAA alpha1beta2gamma2 (unknown origin) expressed in Xenopus oocytes assessed as potentiation of GABA-induced current response at 3 uM at -80 mV holding potential incubated for 3 mins by two electrode voltage clamp method; type: cell-based; settings: Oocyte, filed as positive allosteric modulator
Oocyte [21] = assay: Allosteric modulation of GABAA alpha1S269Ibeta2N265Igamma2S280I mutant (unknown origin) expressed in Xenopus oocytes assessed as potentiation of GABA-induced current response at 3 uM at -80 mV holding potential incubated for 3 mins by two electrode voltage clamp method; type: cell-based; settings: Homo sapiens

CC(C)=CCC[C@]1(C)[C@@H](CC=C(C)C)C[C@]2(CC=C(C)C)C(=O)C(CC=C(C)C)=C(O)[C@@]1(C(=O)C(C)C)C2=O
inhibition [1]: 100%

CN1C(=O)CN=C(c2ccccc2)c2cc(Cl)ccc21
Activity [2]: > 200%

CC(C)=CCc1c(O)cc2c(c1O)C(=O)[C@H](C)[C@@H](C)O2
Activity [3]: 4430% | Activity [4]: 3830% | Activity (Oocyte [5]): inactive | Activity (Oocyte [6]): Active | Activity (Homo sapiens): 459% | Activity [7]: 0.71% | Activity [8]: Active | Activity [9]: Active | Activity [10]: Active | Activity [2]: 60% | Activity (Oocyte [11]): Active | Activity (Oocyte [12]): inactive | inhibition [13]: inactive | EC50 [14]: 4.5 µM | Activity [15]: Active | Activity [16]: Active | Activity (Oocyte [17]): inactive | Activity [18]: Active | Activity (Oocyte [19]): Active | Activity [20]: Active | Activity (Oocyte [21]): inactive
